# Where two headings read alike, the source gives them in different places.
# Assays:
# MV-4-11 cells = experiment: Antiproliferative activity against MV-4-11 cells (CellTiter-Glo, 72 h); format: cell-based; conditions: Homo sapiens
# Description: MV411 cells in the logarithmic growth phase were diluted in a medium (RPMI+10% FBS) and plated at 5,000 cells/well in 96-well whole black plates (WHB) with 50 μL/well. After plating, the plates were incubated in an incubator at 5% CO2 and 37° C. for 24 h before the compounds were added. The compounds were prepared into a 10 mM stock solution in DMSO and diluted in a culture medium to the desired concentrations (a final DMSO concentration of 0.2%). […] The plates were incubated at 5% CO2 and 37° C. for 72 h. After the incubation was complete, the plates were equilibrated at room temperature for 30 min. CellTiter-Glo® Reagent (Promega G7573) was added at 100 μL/well. The plates were shaken for 12 min on a microplate shaker. The luminescence value was measured at room temperature by the GloMax navigator (Promega GM2010).
# GSPT1 protein = target: T1, GSPT1 protein (Homo sapiens, UniProt P15170); experiment: Degradation of GSPT1 protein in NB-4 cells (Western blot); format: cell-based; conditions: for inhibition at 1 µM: read-out: GSPT1 degradation
# T1 construct: The whole cell lysate was prepared using a RIPA lysis buffer; endogenous in cells; host or cells: NB-4 cells
# T1 sequence (P15170 whole entry): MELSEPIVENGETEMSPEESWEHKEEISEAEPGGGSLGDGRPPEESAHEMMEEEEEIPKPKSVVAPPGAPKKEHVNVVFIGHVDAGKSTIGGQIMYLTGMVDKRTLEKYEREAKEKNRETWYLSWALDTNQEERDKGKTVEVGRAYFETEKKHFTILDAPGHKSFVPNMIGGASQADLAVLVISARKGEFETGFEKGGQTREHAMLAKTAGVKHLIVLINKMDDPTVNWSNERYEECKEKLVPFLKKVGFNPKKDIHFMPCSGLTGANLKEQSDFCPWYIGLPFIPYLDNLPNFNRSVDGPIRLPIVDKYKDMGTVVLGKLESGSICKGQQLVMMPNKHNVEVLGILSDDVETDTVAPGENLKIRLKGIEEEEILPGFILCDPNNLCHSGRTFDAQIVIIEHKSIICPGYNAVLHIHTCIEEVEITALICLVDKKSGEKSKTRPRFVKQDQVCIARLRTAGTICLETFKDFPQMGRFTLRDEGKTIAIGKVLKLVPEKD
# Description: 150 μL of DMSO and the compounds (1 μM) were added, and the mixture was incubated in an incubator at 5% CO2 and 37° C. for 6 h. The cells were centrifuged, and the culture medium was discarded. PBS was added for washing and then discarded. The whole cell lysate was prepared using a RIPA lysis buffer containing a protease inhibitor cocktail and a phosphatase inhibitor, and incubated on ice for 30 min. The mixture was centrifuged, and the cell debris was discarded. The whole cell lysate supernatant was collected and transferred to a fresh EP tube. Samples were prepared using a loading buffer after a BCA protein assay. The samples were incubated in a metal bath at 100° C. for 10 min.
# The samples were electrophoretically separated from proteins on a 4-20% precast gel (SDS-PAGE gel), transferred to a PVDF membrane, blocked with 5% NFDM/TBST for 1 h at room temperature, co-incubated overnight at 4° C. with the primary antibody, and co-incubated for 2 h at room temperature with the secondary antibody on the next day. The signals were detected on the […]™ imaging system.
# [1] = MV4-11, MV-4-11 cells, 72 h, read-out: Antiproliferative activity IC50
# [2] = MV4-11, 72 h, read-out: Antiproliferative activity IC50
Structure (SMILES),IC50 (MV-4-11 cells; [1]) [nM],"inhibition at 1 µM (GSPT1 protein; NB-4 cells, compound 1 μM, 6 h) [%]",other results
O=C1CCC(N2Cc3cc(CNC(=O)c4ccc(Cl)cc4)ccc3C2=O)C(=O)N1 (centres unmarked) [reference compound],,,"IC50 (MV-4-11 cells; MV4-11, MV-4-11 cells, read-out: IC50 against MV-4-11 cell proliferation): 103 nM; degradation of GSPT1 protein (GSPT1 protein; co-incubated for 6 h with NB-4 cells): 65%"
Cc1ccc(C(=O)NCc2ccc3c(c2F)CN(C2CCC(=O)NC2=O)C3=O)c(N)c1 (centres unmarked) [FDAB-111],> 1000,< 25,
O=C1CCC(N2Cc3cc(CNC(=O)c4ccncc4)c(F)cc3C2=O)C(=O)N1 (centres unmarked) [FDAB-31],> 1000,< 25,
O=C1CCC(N2Cc3cc(CNC(=O)c4cccnc4)c(F)cc3C2=O)C(=O)N1 (centres unmarked) [FDAB-30],> 1000,< 25,
Cc1cccc(C(=O)NCc2ccc3c(c2F)CN(C2CCC(=O)NC2=O)C3=O)c1 (centres unmarked) [FDAB-89],> 1000,< 25,
CC(C)OC(=O)N1C(=O)CCC(N2Cc3c(ccc(CNC(=O)c4ccc(Cl)cc4)c3F)C2=O)C1=O (centres unmarked) [FDAB-127],> 1000,< 25,
O=C1CCC(N2Cc3cc(CNC(=O)c4ccc(O)cc4)c(F)cc3C2=O)C(=O)N1 (centres unmarked) [FDAB-28],> 1000,< 25,
O=C(CCCCN1CCCCC1)NCc1ccc2c(c1F)CN(C1CCC(=O)NC1=O)C2=O (centres unmarked) [FDAB-159],> 1000,< 25,
Nc1cccc(C(=O)NCc2cc3c(cc2F)C(=O)N(C2CCC(=O)NC2=O)C3)c1 (centres unmarked) [FDAB-34],> 1000,< 25,
NCc1cc(F)c2c(c1)CN(C1CCC(=O)NC1=O)C2=O (centres unmarked) [FDAB-9],> 1000,< 25,
O=C1CCC(N2Cc3c(ccc(CNC(=O)c4ccc(Cl)cn4)c3F)C2=O)C(=O)N1 (centres unmarked) [FDAB-62],> 1000,< 25,
Cc1ccc(C(=O)NCc2ccc3c(c2Cl)CN(C2CCC(=O)NC2=O)C3=O)cc1 (centres unmarked) [FDAB-76],> 1000,< 25,
O=C1CCC(N2Cc3c(ccc(CNC(=O)c4ccc(F)cc4)c3F)C2=O)C(=O)N1 (centres unmarked) [FDAB-49],> 1000,< 25,
N#Cc1cc2c(cc1F)C(=O)N(C1CCC(=O)NC1=O)C2 (centres unmarked) [FDAB-4],> 1000,< 25,
N#Cc1cc2c(cc1Cl)C(=O)N(C1CCC(=O)NC1=O)C2 (centres unmarked) [FDAB-13],> 1000,< 25,
CC(C)(C)OC(=O)NCc1cc2c(cc1Cl)C(=O)N(C1CCC(=O)NC1=O)C2 (centres unmarked) [FDAB-14],> 1000,< 25,
COc1ccc(C(=O)NCc2ccc3c(c2F)CN(C2CCC(=O)NC2=O)C3=O)cc1OC (centres unmarked) [FDAB-102],> 1000,< 25,

Structure (SMILES),IC50 (MV-4-11 cells; [1]) [nM],"inhibition at 1 µM (GSPT1 protein; NB-4 cells, compound 1 μM, 6 h) [%]",other results
O=C1CCC(N2Cc3cc(CNC(=O)c4cnco4)c(F)cc3C2=O)C(=O)N1 (centres unmarked) [FDAB-43],> 1000,< 25,
O=C1CCC(N2Cc3c(ccc(CNC(=O)c4ccc(F)cc4)c3Cl)C2=O)C(=O)N1 (centres unmarked) [FDAB-77],> 1000,< 25,
O=C1CCC(N2Cc3cc(CNC(=O)c4cc5ccccc5o4)c(Cl)cc3C2=O)C(=O)N1 (centres unmarked) [FDAB-71],> 1000,< 25,
CC(C)OC(=O)OCN1C(=O)CCC(N2Cc3c(ccc(CNC(=O)c4ccc(Cl)cc4)c3F)C2=O)C1=O (centres unmarked) [FDAB-128],,,"IC50 (MV-4-11 cells; [2]): 10 to 100 nM; inhibition at 1 µM (GSPT1 protein; NB-4, 6 h): 50 to 80%"
O=C1CCC(N2Cc3cc(CNC(=O)c4cc5cc(F)ccc5o4)c(Cl)cc3C2=O)C(=O)N1 (centres unmarked) [FDAB-73],> 1000,< 25,
O=C1CCC(N2Cc3c(ccc(CNCc4ccc(Oc5ccccc5)cc4)c3F)C2=O)C(=O)N1 (centres unmarked) [FDAB-166],,,"IC50 (MV-4-11 cells; [2]): 1 to 10 nM; inhibition at 1 µM (GSPT1 protein; NB-4, 6 h): > 80%"
O=C(CSc1ccncc1)NCc1ccc2c(c1F)CN(C1CCC(=O)NC1=O)C2=O (centres unmarked) [FDAB-155],> 1000,< 25,
N#Cc1ccc2c(c1F)CN(C1CCC(=O)NC1=O)C2=O (centres unmarked) [FDAB-1],> 1000,< 25,
O=C1CCC(N2Cc3cc(CNC(=O)C4CC4)c(F)cc3C2=O)C(=O)N1 (centres unmarked) [FDAB-40],> 1000,< 25,
CCCCCCCCCCCCSC(=S)SC(C)(C)C(=O)NCc1ccc2c(c1F)CN(C1CCC(=O)NC1=O)C2=O (centres unmarked) [FDAB-163],> 1000,< 25,
CC(C)(C)OC(=O)NCc1cc2c(cc1F)C(=O)N(C1CCC(=O)NC1=O)C2 (centres unmarked) [FDAB-5],> 1000,< 25,
O=C1CCC(N2Cc3cc(CNC(=O)c4ccc(Cl)cn4)c(F)cc3C2=O)C(=O)N1 (centres unmarked) [FDAB-56],> 1000,< 25,
O=C(Cc1cc2ccccc2s1)NCc1cc(F)cc2c1CN(C1CCC(=O)NC1=O)C2=O (centres unmarked) [FDAB-169],10 to 100,50 to 80,
O=C1CCC(N2Cc3c(ccc(CNC(=O)c4ccc(CO)cc4)c3F)C2=O)C(=O)N1 (centres unmarked) [FDAB-108],> 1000,< 25,
COc1cccc(C(=O)NCc2cc3c(cc2F)C(=O)N(C2CCC(=O)NC2=O)C3)c1 (centres unmarked) [FDAB-37],10 to 100,50 to 80,
O=C1CCC(N2Cc3cc(CNC(=O)c4cncs4)c(F)cc3C2=O)C(=O)N1 (centres unmarked) [FDAB-44],> 1000,< 25,

# Continued, in another order:
IC50 (MV-4-11 cells; [1]) [nM],"inhibition at 1 µM (GSPT1 protein; NB-4 cells, compound 1 μM, 6 h) [%]",Structure (SMILES),other results
1 to 10,> 80,O=C(Cc1cc2ccccc2s1)NCc1ccc2c(c1F)CN(C1CCC(=O)NC1=O)C2=O (centres unmarked) [FDAB-136],
1 to 10,> 80,O=C1CCC(N2Cc3c(ccc(CNC(=O)c4cc5cc(Cl)ccc5o4)c3F)C2=O)C(=O)N1 (centres unmarked) [FDAB-47],
1 to 10,> 80,O=C1CCC(N2Cc3c(ccc(CNC(=O)c4cc5ccccc5o4)c3Cl)C2=O)C(=O)N1 (centres unmarked) [FDAB-67],
1 to 10,> 80,C#Cc1ccc(C(=O)NCc2ccc3c(c2F)CN(C2CCC(=O)NC2=O)C3=O)cc1 (centres unmarked) [FDAB-96],
< 1,> 80,COc1cc(C)c(/C=C/C(C)=C/C=C/C(C)=C/C(=O)NCc2ccc3c(c2F)CN(C2CCC(=O)NC2=O)C3=O)c(C)c1C (centres unmarked) [FDAB-162],
1 to 10,> 80,O=C(CCOc1ccccc1)NCc1ccc2c(c1F)CN(C1CCC(=O)NC1=O)C2=O (centres unmarked) [FDAB-154],
10 to 100,> 80,O=C1CCC(N2Cc3cc(CNC(=O)c4ccc(Cl)c(F)c4)c(F)cc3C2=O)C(=O)N1 (centres unmarked) [FDAB-53],
1 to 10,> 80,Cc1ccc(C(=O)NCc2ccc3c(c2F)CN(C2CCC(=O)NC2=O)C3=O)c(O)c1 (centres unmarked) [FDAB-109],
10 to 100,> 80,Cc1nc2cc(C(=O)NCc3cc4c(cc3F)C(=O)N(C3CCC(=O)NC3=O)C4)ccc2s1 (centres unmarked) [FDAB-58],
10 to 100,> 80,Nc1cc(C(=O)NCc2ccc3c(c2F)CN(C2CCC(=O)NC2=O)C3=O)ccc1Cl (centres unmarked) [FDAB-113],
10 to 100,50 to 80,O=C1CCC(N2Cc3c(ccc(CNC(=O)c4ccc(Cl)c(F)c4)c3Cl)C2=O)C(=O)N1 (centres unmarked) [FDAB-118],
< 1,< 25,O=C1CCC(N2Cc3c(ccc(CNC(=O)c4ccc5cc6ccccc6cc5c4)c3F)C2=O)C(=O)N1 (centres unmarked) [FDAB-87],
1 to 10,> 80,CCCc1ccc(CNCc2ccc3c(c2F)CN(C2CCC(=O)NC2=O)C3=O)cc1 (centres unmarked) [FDAB-167],
1 to 10,50 to 80,O=C1CCC(N2Cc3c(ccc(CNC(=O)c4cc5cc(F)ccc5o4)c3Cl)C2=O)C(=O)N1 (centres unmarked) [FDAB-69],
10 to 100,50 to 80,O=C1CCC(N2Cc3cc(CNC(=O)c4cc5cc(F)ccc5o4)c(F)cc3C2=O)C(=O)N1 (centres unmarked) [FDAB-35],
1 to 10,> 80,CN(C)c1ccc(C(=O)NCc2ccc3c(c2F)CN(C2CCC(=O)NC2=O)C3=O)cc1 (centres unmarked) [FDAB-86],
1 to 10,> 80,O=C1CCC(N2Cc3c(ccc(CNC(=O)c4ccc5c(c4)CC5)c3F)C2=O)C(=O)N1 (centres unmarked) [FDAB-98],
< 1,> 80,O=C(CCP(c1ccccc1)c1ccccc1)NCc1ccc2c(c1F)CN(C1CCC(=O)NC1=O)C2=O (centres unmarked) [FDAB-160],
< 1,> 80,O=C(CCSC(=S)SCc1ccccc1)NCc1ccc2c(c1F)CN(C1CCC(=O)NC1=O)C2=O (centres unmarked) [FDAB-161],
1 to 10,> 80,O=C1CCC(N2Cc3cc(CNC(=O)c4ccc(Cl)c(O)c4)c(F)cc3C2=O)C(=O)N1 (centres unmarked) [FDAB-55],
1 to 10,> 80,O=C1CCC(N2Cc3c(ccc(CNC(=O)c4ccc(Cl)cc4F)c3F)C2=O)C(=O)N1 (centres unmarked) [FDAB-117],
1 to 10,> 80,O=C1CCC(N2Cc3cc(CNC(=O)c4cc5ccccc5o4)c(F)cc3C2=O)C(=O)N1 (centres unmarked) [FDAB-19],

# From patent US20250282746A1, “HALOGEN-SUBSTITUTED ISOINDOLINE COMPOUND AND USE THEREOF” (CHENGDU FENDI PHARMACEUTICAL CO., LTD., priority 2022, published 2025)
